Results from publication PMC4490465 (2015).

Experiments:
[1] = test system: Cognate DNA sequence (DNA, hairpin) CGCATATGGTATGTGCCGCGGAAAAACCGCGGCACATACCATATGCG; test: SPR, steady state, 1:1 fit; details: HBS-EP + 0.1% DMSO, pH 7.4, 25 °C
[2] = test system: 3 bp mismatch (DNA, hairpin) CAGTCATGAGCATGGATGCGGAAAAACCGCATCCATGCTCATGACTG; test: SPR, steady state, 1:1 fit; details: HBS-EP + 0.1% DMSO, pH 7.4, 25 °C

SMILES | Kd ([1]; apparent) [nM] | Kd [1] [nM] | Kd [2] [nM]
CN(C)CCCNC(=O)CCNC(=O)c1cc(NC(=O)c2cc(NC(=O)c3cc(NC(=O)c4cc(NC(=O)CCCNC(=O)c5cc(NC(=O)c6cc(NC(=O)c7nc(NC(=O)c8nc(NC(=O)CCOCCOCCOCCNC(=O)[C@@H](N)CSSC(C)(C)C)cn8C)cn7C)cn6C)cn5C)cn4C)cn3C)cn2C)cn1C | 9.3 ± 1.6 |  | 
CC(=O)Nc1cn(C)c(C(=O)Nc2cn(C)c(C(=O)Nc3cc(C(=O)Nc4cc(C(=O)NCCCC(=O)Nc5cc(C(=O)Nc6cc(C(=O)Nc7cc(C(=O)Nc8cc(C(=O)NCCC(=O)NCCCN(C)C)n(C)c8)n(C)c7)n(C)c6)n(C)c5)n(C)c4)n(C)c3)n2)n1 |  | 1.6 ± 0.1 | 314 ± 160
